Here are results for seven molecules from patent publication US9150529B2, “Piperazine derivatives, methods for preparing same, and uses thereof in the treatment of insulin resistance” (METABOLYS, priority 2011, dated 2015).

The assay has as its system db/db mouse. Briefly: Antidiabetic activity in db/db mouse (drop in glycaemia after oral administration). It counts as in vivo. Particulars: 8 weeks old, 200 mg/kg per os, blood from tail, glucometer; for Drop in glycaemia (in % of the initial value) After 1 hour: 1 hour after administration; for Drop in glycaemia (in % of the initial value) After 2 hours: 2 hours after administration. On the procedure:
The antidiabetic activity of the compounds of formula (I) orally on a type 2 diabetes animal model, the db/db mouse, was tested. Diabetic mice are used at the age of 8 weeks; they then have very high hyperglycaemia. The animals are stabilised at a minimum for one week after reception and up to the day of experimentation in an animal house at a temperature regulated at 21°-22° C. and subjected to a fixed cycle of light (from 7 a.m. to 7 p.m.) and darkness (from 7 p.m. to 7 a.m.). Their food consisted of a maintenance regime; water and food were supplied “ad libitum”. The mice are treated orally with the product to be tested (200 mg/kg per os) in suspension in a mixture of water and methyl cellulose or the vehicle (mixture of water and methyl cellulose) in the morning of the day of the experimentation. Just before the administration of the product and one and two hours after the administration of the product, a blood sample (one drop of blood) is taken following a small incision in the tail for determining glycaemia. This glycaemia is measured by means of a glucometer (Lifescan OneTouch Ultra, LifeScan, Johnson-Johnson Company) and OneTouchUltra glycaemia measurement strips.

SMILES strings stand for the structures.

As to `O=C(O)CCC(=O)c1ccc(OCCN2CCN(c3ccccn3)CC2)cc1` [Compound 10], the “Drop in glycaemia (in % of the initial value) After 1 hour” value is reported as 23% and the “Drop in glycaemia (in % of the initial value) After 2 hours” value is 39%.

Consider `O=C(O)CCC(=O)c1ccc(OCCN2CCN(c3ccc(F)cc3)CC2)cc1` [Compound 5], for which the “Drop in glycaemia (in % of the initial value) After 1 hour” value is 5% and the “Drop in glycaemia (in % of the initial value) After 2 hours” value was 23%.

Consider `O=C(O)CCC(=O)c1ccc(OCCN2CCN(c3ccccc3F)CC2)cc1` [Compound 3], for which the “Drop in glycaemia (in % of the initial value) After 1 hour” value was found to be 23% and the “Drop in glycaemia (in % of the initial value) After 2 hours” value is given as 29%.

For the molecule `CN(C)C(=N)N=C(N)N` [Metformin, reference compound], the “Drop in glycaemia (in % of the initial value) After 1 hour” value was determined as 22% and the “Drop in glycaemia (in % of the initial value) After 2 hours” value came to 27%.

In the case of `O=C(O)CCC(=O)c1ccc(OCCN2CCN(c3cccc(F)c3)CC2)cc1` [Compound 4], the “Drop in glycaemia (in % of the initial value) After 1 hour” value amounted to 9% and the “Drop in glycaemia (in % of the initial value) After 2 hours” value amounted to 20%.

For `COc1cccc(N2CCN(CCOc3ccc(C(=O)CCC(=O)O)cc3)CC2)c1` [Compound 12], the “Drop in glycaemia (in % of the initial value) After 1 hour” value came out at 19% and the “Drop in glycaemia (in % of the initial value) After 2 hours” value worked out at 32%.

As for `COc1ccc(N2CCN(CCOc3ccc(C(=O)CCC(=O)O)cc3)CC2)cc1` [Compound 2], the “Drop in glycaemia (in % of the initial value) After 1 hour” value is reported as 7% and the “Drop in glycaemia (in % of the initial value) After 2 hours” value is on record as 12%.
